Key:
[1] = tested on: barnyardgrass; experiment: Test Example 2: soil surface treatment, upland pot test; type: in vivo, Echinochloa crus-galli L.; settings: active ingredient 500 g/ha
Excerpt: (§1) Upland field soil was put into a 1/170,000 ha pot, and seed of various plants (barnyardgrass, crabgrass, green foxtail, redroot pigweed, prickly sida, velvetleaf, rice, wheat, corn, soybean) were sown. On the 1st day after the sowing, a wettable powder or emulsifiable concentrate having the compound of the present invention formulated in accordance with a usual formulation method, was weighed so that the active ingredient would be a predetermined amount, and diluted with water in an amount of 1,500 L/ha. The herbicide thus adjusted was applied by a small size sprayer for soil surface treatment. On the 20th to 28th days after the application of the herbicide, the growth of the respective plants was visually observed, and the herbicidal effects were evaluated by the growth controlling degrees (%) ranging from 0 (equivalent to the non-treated plot) to 100 (complete kill), whereby the results shown in Table 4, were obtained.

[2] = tested on: crabgrass; experiment: as above; type: in vivo, Digitaria sanguinalis L.; settings: active ingredient 500 g/ha
Excerpt: as §1

[3] = tested on: green foxtail; experiment: as above; type: in vivo, Setaria viridis L.; settings: active ingredient 500 g/ha
Excerpt: as §1

[4] = tested on: redroot pigweed; experiment: as above; type: in vivo, Amaranthus retroflexus L.; settings: active ingredient 500 g/ha
Excerpt: as §1

[5] = tested on: prickly sida; experiment: as above; type: in vivo, Sida spinosa L.; settings: active ingredient 500 g/ha
Excerpt: as §1

[6] = tested on: velvetleaf; experiment: as above; type: in vivo, Abutilon theophrasti MEDIC.; settings: active ingredient 500 g/ha
Excerpt: as §1

[7] = tested on: rice; experiment: as above; type: in vivo, Oryza sativa L.; settings: active ingredient 500 g/ha
Excerpt: as §1

[8] = tested on: corn; experiment: as above; type: in vivo, Zea mays L.; settings: active ingredient 500 g/ha
Excerpt: as §1

[9] = tested on: soybean; experiment: as above; type: in vivo, Glycine max Merr.; settings: active ingredient 500 g/ha
Excerpt: as §1

[10] = tested on: barnyardgrass; experiment: Test Example 3: paddy pot test, application under submerged conditions; type: in vivo, Echinochloa crus-galli L.; settings: active ingredient 250 g/ha; submerged application at 0.5 leaf stage; visually observed 14 days after application; 0 = non-treated, 100 = complete kill
How it was run: (§2)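 Visual rating of growth control (0% equals untreated, 100% complete kill) made 14 days after treatment. Compound, formulated as wettable powder or emulsifiable concentrate and diluted in water, was pipetted under submerged conditions at predetermined active-ingredient doses once weeds reached 0.5-leaf (barnyardgrass, bulrush) or primary-leaf (wapato, from tubers) stage. Pots of greenhouse paddy soil held 3–4 cm flooding.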

[11] = tested on: japanese bulrush; experiment: as above; type: in vivo, Scirpus juncoides; settings: submerged application at 0.5 leaf stage, visually observed 14 days after application, 0 = non-treated, 100 = complete kill
How it was run: as §2

[12] = tested on: japanese ribbon wapato; experiment: as above; type: in vivo, Sagittaria pygniaea; settings: submerged application at primary leaf stage, visually observed 14 days after application, 0 = non-treated, 100 = complete kill
How it was run: as §2

[13] = tested on: rice (var. Nihonbare); experiment: Test Example 3: paddy pot test, transplanted rice; type: in vivo, Oryza sativa L.; settings: applied 4th day after transplantation, visually observed 21st day after application, 0 = non-treated, 100 = complete kill
How it was run: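 Visual crop-injury rating (0 = as untreated, 100 = complete kill, %) taken 21 days post-application. Treatment: formulated compound, water-diluted, pipetted into 3–4 cm flood water at a preset active-ingredient dose, 4 days after transplanting 2-leaf Nihonbare rice 3 cm deep in puddled paddy soil.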

[14] = observed day 21, 0 = non-treated, 100 = complete kill

SMILES | Growth controlling degree (%) Barnyardgrass ([1]; observed 20th to 28th day) [%] | Growth controlling degree (%) Crabgrass ([2]; observed 20th to 28th day) [%] | Growth controlling degree (%) Green foxtail ([3]; observed 20th to 28th day) [%] | Growth controlling degree (%) Redroot pigweed ([4]; observed 20th to 28th day) [%] | Growth controlling degree (%) Prickly sida ([5]; observed 20th to 28th day) [%] | Growth controlling degree (%) Velvetleaf ([6]; observed 20th to 28th day) [%] | Growth controlling degree (%) Rice ([7]; observed 20th to 28th day) [%] | Growth controlling degree (%) Corn ([8]; observed 20th to 28th day) [%] | Growth controlling degree (%) Soyabean ([9]; observed 20th to 28th day) [%] | Growth controlling degree (%) Barnyardgrass [10] [%] | Growth controlling degree (%) Japanese bulrush ([11]; active ingredient 250 g/ha) [%] | Growth controlling degree (%) Japanese ribbon wapato ([12]; active ingredient 250 g/ha) [%] | Growth controlling degree (%) Rice ([13]; active ingredient 250 g/ha) [%] | Growth controlling degree (%) Barnyardgrass [1, 14] [%] | Growth controlling degree (%) Crabgrass [2, 14] [%] | Growth controlling degree (%) Green foxtail [3, 14] [%] | Growth controlling degree (%) Redroot pigweed [4, 14] [%] | Growth controlling degree (%) Prickly sida [5, 14] [%] | Growth controlling degree (%) Velvetleaf [6, 14] [%] | Growth controlling degree (%) Rice [7, 14] [%] | further results
CC(C)C(c1cnccc1C(F)(F)F)N(C)C(=O)C=Cc1ccc(F)cc1 (centres unmarked) [I-172] | 40 | 98 | 95 | 60 | 80 | 10 | 20 | 10 | 0 | 100 | 98 | 95 | 0 | – | – | – | – | – | – | – | –
CC(C)C(c1cnccc1C(F)(F)F)N(C)C(=O)CSc1ccccc1 (centres unmarked) [I-256] | – | – | – | – | – | – | – | – | – | 100 | 90 | 20 | 0 | 70 | 98 | 100 | 80 | 10 | 0 | 0 | Growth controlling degree (%) Corn [8, 14]: 10%; Growth controlling degree (%) Soyabean [9, 14]: 0%
CC(C)C(c1cnccc1Cl)N(C)C(=O)COc1ccccc1 (centres unmarked) [Compound I-84] | 80 | 70 | 30 | 50 | 0 | 0 | 20 | 20 | 0 | 98 | 98 | 20 | 0 | – | – | – | – | – | – | – | –
CCN(C(=O)Cc1ccccc1)C(c1cnccc1Cl)C(C)C (centres unmarked) [Compound I-102] | 100 | 98 | 100 | 20 | 60 | 0 | 10 | 35 | 20 | 98 | 100 | 60 | 10 | – | – | – | – | – | – | – | –
CCc1ccc(OCC(=O)N(C)C(c2cnccc2C(F)(F)F)C(C)C)cc1 (centres unmarked) [I-249] | – | – | – | – | – | – | – | – | – | 98 | 98 | 0 | 0 | 95 | 98 | 98 | 60 | 80 | 50 | 20 | Growth controlling degree (%) Corn [8, 14]: 20%; Growth controlling degree (%) Soyabean [9, 14]: 20%
CC(C)C(c1cnccc1C(F)(F)F)N(C)C(=O)Cc1c(F)ccc(F)c1F (centres unmarked) [Compound I-17] | 100 | 98 | 100 | 50 | 90 | 80 | 30 | 20 | 20 | – | – | – | – | – | – | – | – | – | – | – | Growth controlling degree (%) Japanese bulrush ([11]; active ingredient 500 g/ha): 90%; Growth controlling degree (%) Japanese ribbon wapato ([12]; active ingredient 500 g/ha): 90%; Growth controlling degree (%) Rice ([13]; active ingredient 500 g/ha): 35%
